Measurements reported in patent US20150344540A1, “NOVEL GLP-1 RECEPTOR AGONISTS WITH CHOLESTEROL EFFLUX ACTIVITY” (NOVO NORDISK A/S, priority 2012, published 2015).
Read-outs that look alike come from different tables or passages of the source. Where a SMILES comes first, the peptide text is derived from it. [ ]: non-standard residue; d: D form. Aib = CC(C)(N)C(=O)O

How the values were obtained:
[1] = system: Mouse monocyte/macrophage cell line, RAW 264.7; experiment: Cholesterol efflux assay (3H-cholesterol, macrophage cell line); assay type: cell-based; conditions: RAW 264.7, 4 hrs incubation, 0.1% human serum albumin; for 4 h Cholesterol Efflux Emax: ABCA1-mediated efflux; for EC50: read-out: 4 h Cholesterol Efflux EC50, ABCA1-mediated efflux (CPT-cAMP induced minus non-induced)
human GLP-1 receptor = human GLP-1 receptor (Homo sapiens, UniProt P43220); experiment: Functional GLP-1 receptor assay, in vitro potency (CRE luciferase; whole cells); assay type: cell-based
human GLP-1 receptor, sequence (P43220 24-463): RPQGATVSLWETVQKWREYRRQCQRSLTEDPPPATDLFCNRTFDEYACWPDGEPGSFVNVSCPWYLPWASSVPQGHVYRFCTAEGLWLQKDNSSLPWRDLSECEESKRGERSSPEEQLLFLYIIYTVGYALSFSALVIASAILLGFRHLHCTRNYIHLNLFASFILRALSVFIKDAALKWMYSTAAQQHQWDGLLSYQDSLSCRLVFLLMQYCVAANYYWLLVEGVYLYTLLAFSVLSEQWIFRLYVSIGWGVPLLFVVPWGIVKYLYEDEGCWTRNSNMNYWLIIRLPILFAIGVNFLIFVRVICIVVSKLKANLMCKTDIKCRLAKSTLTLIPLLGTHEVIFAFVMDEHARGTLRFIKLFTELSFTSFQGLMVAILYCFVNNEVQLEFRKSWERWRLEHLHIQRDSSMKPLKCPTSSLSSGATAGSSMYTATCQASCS

[2] = GLP1R CRE luc 0% HSA EC50 Mean Value
[3] = GLP1R CRE luc 1% HSA EC50 Mean Value, BHK cells expressing human GLP-1 receptor, 1% HSA
[4] = BHK cells expressing human GLP-1 receptor, 0% HSA, read-out: GLP1R CRE luc 0% HSA EC50 Mean Value

Row | Molecule | 4 h Cholesterol Efflux Emax [1] [%] | EC50 [1] [nM] | EC50 (human GLP-1 receptor; [2]) [nM] | EC50 (human GLP-1 receptor; GLP1R CRE luc 1% HSA EC50 Mean Value) [nM] | EC50 (human GLP-1 receptor; [3]) [nM] | EC50 (human GLP-1 receptor; [4]) [nM]
1 | CC(C)C[C@H](NC(=O)[C@H](Cc1ccccc1)NC(=O)[C@H](CCC(=O)O)NC(=O)[C@H](CCCCN)NC(=O)C(C)(C)NC(=O)[C@H](CCCCN)NC(=O)[C@H](CCC(=O)O)NC(=O)[C@@H](NC(=O)[C@H](CC(C)C)NC(=O)[C@H](Cc1c[nH]c2ccccc12)NC(=O)[C@H](C)NC(=O)[C@@H](NC(=O)[C@H](Cc1ccccc1)NC(=O)[C@H](CCC(=O)O)NC(=O)[C@H](CCCCN)NC(=O)[C@@H](NC(=O)[C@H](C)NC(=O)[C@H](CCC(=O)O)NC(=O)CNC(=O)[C@H](CCC(=O)O)NC(=O)[C@H](CC(C)C)NC(=O)[C@H](Cc1ccc(O)cc1)NC(=O)[C@H](CO)NC(=O)[C@H](CO)NC(=O)[C@@H](NC(=O)[C@H](CC(=O)O)NC(=O)[C@H](CO)NC(=O)[C@@H](NC(=O)[C@H](Cc1ccccc1)NC(=O)[C@@H](NC(=O)CNC(=O)[C@H](CCC(=O)O)NC(=O)C(C)(C)NC(=O)[C@@H](N)Cc1c[nH]cn1)[C@@H](C)O)[C@@H](C)O)C(C)C)C(C)C)C(C)C)C(C)C)C(N)=O [Compound 82, [Aib8,Glu23,Val25,Val29,Glu34,Lys35,Aib36,Lys37]-GLP-1-(7-37)-peptidyl-Glu-Phe-Leu amide] (H-H[Aib]EGTFTSDVSSYLEGEAVKEFVAWLVEK[Aib]KEFL-NH2; N-terminus assumed) | 120 | 690 | 0.111 | 0.036 | – | –
2 | CC[C@H](C)[C@H](NC(=O)[C@H](Cc1ccccc1)NC(=O)[C@H](CCC(=O)O)NC(=O)[C@H](CCCCN)NC(=O)[C@@H](NC(=O)[C@H](CCCNC(=N)N)NC(=O)[C@H](CCC(=O)O)NC(=O)CNC(=O)[C@H](CCC(=O)O)NC(=O)[C@H](CC(C)C)NC(=O)[C@H](Cc1ccc(O)cc1)NC(=O)[C@H](CO)NC(=O)[C@H](CO)NC(=O)[C@@H](NC(=O)[C@H](CC(=O)O)NC(=O)[C@H](CO)NC(=O)[C@@H](NC(=O)[C@H](Cc1ccccc1)NC(=O)[C@@H](NC(=O)CNC(=O)[C@H](CCC(=O)O)NC(=O)C(C)(C)NC(=O)[C@@H](N)Cc1c[nH]cn1)[C@@H](C)O)[C@@H](C)O)C(C)C)C(C)C)C(=O)N[C@@H](C)C(=O)N[C@@H](Cc1c[nH]c2ccccc12)C(=O)N[C@@H](CC(C)C)C(=O)N[C@H](C(=O)N[C@@H](CCC(=O)O)C(=O)N[C@@H](CCCCN)C(=O)NC(C)(C)C(=O)N[C@@H](CCCCN)C(=O)N[C@@H](CCC(=O)O)C(=O)N[C@@H](Cc1ccccc1)C(=O)N[C@@H](CC(C)C)C(N)=O)C(C)C [Compound 53, [Aib8,Glu23,Arg24,Val25,Glu34,Lys35,Aib36,Lys37]-GLP-1-(7-37)-peptidyl-Glu-Phe-Leu amide] (H-H[Aib]EGTFTSDVSSYLEGERVKEFIAWLVEK[Aib]KEFL-NH2) | 109 | – | – | – | 0.273 | –
3 | CC[C@H](C)[C@H](NC(=O)[C@H](Cc1ccccc1)NC(=O)[C@H](CCC(=O)O)NC(=O)[C@H](CCCCN)NC(=O)[C@@H](NC(=O)[C@H](C)NC(=O)[C@H](CCC(=O)O)NC(=O)CNC(=O)[C@H](CCC(=O)O)NC(=O)[C@H](CC(C)C)NC(=O)[C@H](Cc1ccc(O)cc1)NC(=O)[C@H](CO)NC(=O)[C@H](CO)NC(=O)[C@@H](NC(=O)[C@H](CC(=O)O)NC(=O)[C@H](CO)NC(=O)[C@@H](NC(=O)[C@H](Cc1ccccc1)NC(=O)[C@@H](NC(=O)CNC(=O)[C@H](CCC(=O)O)NC(=O)C(C)(C)NC(=O)[C@@H](N)Cc1c[nH]cn1)[C@@H](C)O)[C@@H](C)O)C(C)C)C(C)C)C(=O)N[C@@H](Cc1c[nH]c2ccccc12)C(=O)N[C@@H](Cc1c[nH]c2ccccc12)C(=O)N[C@@H](CC(C)C)C(=O)N[C@H](C(=O)N[C@@H](CCC(=O)O)C(=O)N[C@@H](CCCCN)C(=O)NC(C)(C)C(=O)N[C@@H](CCCCN)C(=O)N[C@@H](CCC(=O)O)C(=O)N[C@@H](Cc1ccccc1)C(=O)N[C@@H](CC(C)C)C(N)=O)C(C)C [Compound 50, [Aib8,Glu23,Val25,Trp30,Glu34,Lys35,Aib36,Lys37]-GLP-1-(7-37)-peptidyl-Glu-Phe-Leu amide] (H-H[Aib]EGTFTSDVSSYLEGEAVKEFIWWLVEK[Aib]KEFL-NH2) | 87 | – | – | – | – | 0.157
4 | CC(C)C[C@H](NC(=O)[C@H](Cc1ccccc1)NC(=O)[C@H](CCC(=O)O)NC(=O)[C@H](CCCCN)NC(=O)C(C)(C)NC(=O)[C@H](CCCCN)NC(=O)[C@H](CCC(=O)O)NC(=O)[C@H](CC(C)C)NC(=O)[C@H](CC(C)C)NC(=O)[C@H](Cc1c[nH]c2ccccc12)NC(=O)[C@H](CCC(N)=O)NC(=O)[C@@H](NC(=O)[C@H](Cc1ccccc1)NC(=O)[C@H](CCC(=O)O)NC(=O)[C@H](CCCNC(=N)N)NC(=O)[C@@H](NC(=O)[C@H](C)NC(=O)[C@H](CCC(=O)O)NC(=O)CNC(=O)[C@H](CCC(=O)O)NC(=O)[C@H](CC(C)C)NC(=O)[C@H](Cc1ccc(O)cc1)NC(=O)[C@H](CO)NC(=O)[C@H](CO)NC(=O)[C@@H](NC(=O)[C@H](CC(=O)O)NC(=O)[C@H](CO)NC(=O)[C@@H](NC(=O)[C@H](Cc1ccccc1)NC(=O)[C@@H](NC(=O)CNC(=O)[C@H](CCC(=O)O)NC(=O)C(C)(C)NC(=O)[C@@H](N)Cc1c[nH]cn1)[C@@H](C)O)[C@@H](C)O)C(C)C)C(C)C)C(C)C)C(N)=O [Compound 80, [Aib8,Glu23,Val25,Arq26,Val29,Gln30,Leu33,Glu34,Lys35,Aib36,Lys37]-GLP-1-(7-37)-peptidyl-Glu-Phe-Leu amide] (H-H[Aib]EGTFTSDVSSYLEGEAVREFVQWLLEK[Aib]KEFL-NH2) | 108 | – | – | – | 0.029 | –
5 | CC[C@H](C)[C@H](NC(=O)[C@H](Cc1ccccc1)NC(=O)[C@H](CCC(=O)O)NC(=O)[C@H](CCCNC(=N)N)NC(=O)[C@@H](NC(=O)[C@H](C)NC(=O)[C@H](CCC(=O)O)NC(=O)[C@H](CCC(=O)O)NC(=O)[C@H](CCC(=O)O)NC(=O)[C@H](CCSC)NC(=O)[C@H](CCC(N)=O)NC(=O)[C@H](CCCCN)NC(=O)[C@H](CO)NC(=O)[C@H](CC(C)C)NC(=O)[C@H](CC(=O)O)NC(=O)[C@H](CO)NC(=O)[C@@H](NC(=O)[C@H](Cc1ccccc1)NC(=O)[C@@H](NC(=O)CNC(=O)[C@H](CCC(=O)O)NC(=O)C(C)(C)NC(=O)[C@@H](N)Cc1c[nH]cn1)[C@@H](C)O)[C@@H](C)O)C(C)C)C(=O)N[C@@H](CCC(=O)O)C(=O)N[C@@H](Cc1c[nH]c2ccccc12)C(=O)N[C@@H](CC(C)C)C(=O)N[C@@H](CCCCN)C(=O)N[C@@H](CC(N)=O)C(=O)N[C@@H](CCCCN)C(=O)NC(C)(C)C(=O)N[C@@H](CC(C)C)C(=O)N[C@@H](CCC(=O)O)C(=O)N[C@@H](Cc1ccccc1)C(=O)N[C@@H](CC(C)C)C(=O)N[C@@H](CCC(=O)O)C(=O)N1CCC[C@H]1C(=O)N[C@@H](CC(C)C)C(N)=O [Compound 39, [Aib2,Glu21,Lys29,Aib30,Leu31,Glu32,Phe33,Leu34,Glu35,Leu371-Exendin-4-(1-37)-peptide amide] (H-H[Aib]EGTFTSDLSKQMEEEAVREFIEWLKNK[Aib]LEFLEPL-NH2; N-terminus assumed) | 113 | – | – | – | 0.013 | 0.032
6 | CC[C@H](C)[C@H](NC(=O)[C@H](Cc1ccccc1)NC(=O)[C@H](CCC(=O)O)NC(=O)[C@H](CCCCN)NC(=O)[C@@H](NC(=O)[C@H](C)NC(=O)[C@H](CCC(=O)O)NC(=O)CNC(=O)[C@H](CCC(=O)O)NC(=O)[C@H](CC(C)C)NC(=O)[C@H](Cc1ccc(O)cc1)NC(=O)[C@H](CO)NC(=O)[C@H](CO)NC(=O)[C@@H](NC(=O)[C@H](CC(=O)O)NC(=O)[C@H](CO)NC(=O)[C@@H](NC(=O)[C@H](Cc1ccccc1)NC(=O)[C@@H](NC(=O)CNC(=O)[C@H](CCC(=O)O)NC(=O)C(C)(C)NC(=O)[C@@H](N)Cc1c[nH]cn1)[C@@H](C)O)[C@@H](C)O)C(C)C)C(C)C)C(=O)N[C@@H](C)C(=O)N[C@@H](Cc1c[nH]c2ccccc12)C(=O)N[C@@H](CC(C)C)C(=O)N[C@H](C(=O)N[C@@H](CCC(=O)O)C(=O)N[C@@H](CCCCN)C(=O)N[C@H](C(=O)N[C@@H](CCCCN)C(=O)N[C@@H](CCC(=O)O)C(=O)N[C@H](C(=O)N[C@@H](CC(C)C)C(N)=O)C(C)C)C(C)C)C(C)C [Compound 120, [Aib8,Glu23,Val25,Glu34,Lys35,Val36,Lys37]-GLP-1-(7-37)-peptidyl-Glu-Val-Leu amide] (H-H[Aib]EGTFTSDVSSYLEGEAVKEFIAWLVEKVKEVL-NH2; N-terminus assumed) | 142 | 380 | 0.198 | – | – | –
7 | H-HAEGTFTSDVSSYLEGQAAKEFIAWLVEKVKEFLEK-OH [Compound 124, [Glu34,Lys35,Val36,Lys37]-GLP-1-(7-37)-peptidyl-Glu-Phe-Leu-Glu-Lys] | 146 | – | – | – | 0.011 | 0.03
8 | CC[C@H](C)[C@H](NC(=O)[C@H](Cc1ccccc1)NC(=O)[C@H](CCC(=O)O)NC(=O)[C@H](CCCCN)NC(=O)[C@@H](NC(=O)[C@H](C)NC(=O)[C@H](CCC(=O)O)NC(=O)CNC(=O)[C@H](CCC(=O)O)NC(=O)[C@H](CC(C)C)NC(=O)[C@H](Cc1ccc(O)cc1)NC(=O)[C@H](CO)NC(=O)[C@H](CO)NC(=O)[C@@H](NC(=O)[C@H](CC(=O)O)NC(=O)[C@H](CO)NC(=O)[C@@H](NC(=O)[C@H](Cc1ccccc1)NC(=O)[C@@H](NC(=O)CNC(=O)[C@H](CCC(=O)O)NC(=O)C(C)(C)NC(=O)[C@@H](N)Cc1c[nH]cn1)[C@@H](C)O)[C@@H](C)O)C(C)C)C(C)C)C(=O)N[C@@H](C)C(=O)N[C@@H](Cc1c[nH]c2ccccc12)C(=O)N[C@@H](CC(C)C)C(=O)N[C@H](C(=O)NCC(=O)NC(C)(C)C(=O)N[C@@H](CCCCN)C(=O)N[C@@H](CCC(=O)O)C(=O)N[C@@H](Cc1ccccc1)C(=O)N[C@@H](CC(C)C)C(N)=O)C(C)C [Compound 10] (H-H[Aib]EGTFTSDVSSYLEGEAVKEFIAWLVG[Aib]KEFL-NH2) | 79 | – | – | – | 0.004 | 0.01
